Reference: article PMC11992225, “Antibacterial compounds against non-growing and intracellular bacteria” (npj Antimicrobials and Resistance, 2025)
pIC50: −log10 of the molar value.

Test system: intracellular S. flexneri 5a M90T in TC7 cells
Experiment: microbe, parasite or virus in culture
Format: cell-based, Shigella flexneri
From the text: Nonproliferating bacterial pathogens frequently inhabit intracellular environments, but establishing relevant infection models for high-throughput testing is challenging. Therefore, we firstly tested ability of the hit compounds to cross the eukaryotic cytoplasmic membrane barrier and inhibit growth of S. flexneri within the cytoplasm of the TC7 human colon adenocarcinoma cell line[59]. To this end, we developed a new, fluorescence-based method that enables real-time monitoring of growth of intracellular Shigella. We used S. flexneri 5a M90T strain producing the AfaE adhesin that enhances bacterial adhesion to epithelial cells and allows synchronization of invasion. The strain was further modified to constitutively express super-folder GFP (sfGFP), which enables monitoring bacterial growth by fluorescence measurement. The epithelial cells were grown to confluence and infected with bacteria at an MOI (multiplicity of infection) of 50. […] Following bacterial adhesion and invasion, the cells were incubated with varying concentrations of the hit compounds and intracellular bacterial growth was tracked by measuring green fluorescence.
The cells were split using trypsin, seeded in 96-well plates for infection, and grown to confluence, corresponding to approximately 40,000 cells per well.
A single colony of S. flexneri was inoculated into TSB supplemented with 50 μg/ml spectinomycin and incubated overnight at 37°C with agitation. The overnight culture was diluted 1:200 in fresh TSB, and the bacteria were grown at 37 °C until the OD600 reached 0.3–0.4, corresponding to approximately 2 × 10^7 CFU/ml. Bacteria were pelleted by centrifugation, washed twice with sterile PBS, and resuspended in infection solution (serum-free DMEM supplemented with 20 mM HEPES, pH 7.4). Just prior to infection, the medium was withdrawn, and the cells were washed twice with sterile PBS. The bacterial inoculum (MOI 50, 2 × 10^7 CFU/ml) was added to all wells except the no-infection control. The plates were incubated at room temperature for 15 min to allow bacterial adhesion, followed by a 1 h incubation at 37 °C with 5% CO2 to facilitate bacterial invasion.
Twofold serial dilutions of the drugs were prepared in infection solution containing 50 μg/ml gentamicin in a 96-well plate. After the invasion period, the bacterial inoculum was removed, and the serial dilutions of the drugs were added to the wells, except for the no-drug control. […] […] The experiments were performed in triplicates on separate days.
Statistical significance of the drug effects was assessed using a one-way ANOVA followed by Dunnett’s test, comparing each treatment to the drug-free control. Statistical significance of the differences in chemical characteristics between the hit compounds and the Prestwick library was assessed using a Mann–Whitney test. Statistical significance was set at P ≤ 0.05. A five-parameter logistic equation was used for asymmetric sigmoidal curve fitting and for EC50 and IC50 determination. The Venn diagram in Fig. 1F was prepared using BioVenn web application. Characteristics of the chemical and physical properties of Prestwick library compounds were obtained from Supplementary Table S1 from reference. Characteristics of the hit compounds not included in the Prestwick library were retrieved from the PubChem database.

## CN1C[C@@H]2C[C@H]1CN2c1cc2c(cc1F)c(=O)c(C(=O)O)cn2C1CC1 [Danofloxacin]
Shigella flexneri, TC7, 14 h
  pIC50: 7.28
TC7 cells infected with GFP-expressing S. flexneri, 14 h treatment, 0.25 x MIC
  Fluorescence intensity (RFU), Mean, 0.25 x MIC: 9638.21 RFU
TC7 cells infected with GFP-expressing S. flexneri, 14 h treatment, 0.5 x MIC
  Fluorescence intensity (RFU), Mean, 0.5 x MIC: 8906.42 RFU
TC7 cells infected with GFP-expressing S. flexneri, 14 h treatment, 2 x MIC
  Fluorescence intensity (RFU), Mean, 2 x MIC: 3750.58 RFU
TC7 cells infected with GFP-expressing S. flexneri, 14 h treatment, 4 x MIC
  Fluorescence intensity (RFU), Mean, 4 x MIC: 3092.69 RFU
TC7 cells infected with GFP-expressing S. flexneri, 14 h treatment, 8 x MIC
  Fluorescence intensity (RFU), Mean, 8 x MIC: 2319.78 RFU
TC7 cells infected with GFP-expressing S. flexneri, 14 h treatment, 16 x MIC
  Fluorescence intensity (RFU), Mean, 16 x MIC: 1798.5 RFU
TC7 cells infected with GFP-expressing S. flexneri, 14 h treatment, 32 x MIC
  Fluorescence intensity (RFU), Mean, 32 x MIC: 1629.06 RFU
TC7 cells infected with GFP-expressing S. flexneri, 14 h treatment, MIC
  Fluorescence intensity (RFU), Mean, MIC: 4339.36 RFU
